We go through 24 molecules from patent US20120202856A1, “SUBSTITUTED BENZIMDAZOLE DERIVATIVES USEFUL AS TRPM8 RECEPTOR MODULATORS” (priority 2011, published 2012).

Counter-ions that a name gives are not always drawn.

The target of one experiment is T1, canine TRPM8 (Canis lupus familiaris, UniProt Q1A7N1).
T1 construct: expressed in transfected cells
T1 sequence (Q1A7N1 1-1104): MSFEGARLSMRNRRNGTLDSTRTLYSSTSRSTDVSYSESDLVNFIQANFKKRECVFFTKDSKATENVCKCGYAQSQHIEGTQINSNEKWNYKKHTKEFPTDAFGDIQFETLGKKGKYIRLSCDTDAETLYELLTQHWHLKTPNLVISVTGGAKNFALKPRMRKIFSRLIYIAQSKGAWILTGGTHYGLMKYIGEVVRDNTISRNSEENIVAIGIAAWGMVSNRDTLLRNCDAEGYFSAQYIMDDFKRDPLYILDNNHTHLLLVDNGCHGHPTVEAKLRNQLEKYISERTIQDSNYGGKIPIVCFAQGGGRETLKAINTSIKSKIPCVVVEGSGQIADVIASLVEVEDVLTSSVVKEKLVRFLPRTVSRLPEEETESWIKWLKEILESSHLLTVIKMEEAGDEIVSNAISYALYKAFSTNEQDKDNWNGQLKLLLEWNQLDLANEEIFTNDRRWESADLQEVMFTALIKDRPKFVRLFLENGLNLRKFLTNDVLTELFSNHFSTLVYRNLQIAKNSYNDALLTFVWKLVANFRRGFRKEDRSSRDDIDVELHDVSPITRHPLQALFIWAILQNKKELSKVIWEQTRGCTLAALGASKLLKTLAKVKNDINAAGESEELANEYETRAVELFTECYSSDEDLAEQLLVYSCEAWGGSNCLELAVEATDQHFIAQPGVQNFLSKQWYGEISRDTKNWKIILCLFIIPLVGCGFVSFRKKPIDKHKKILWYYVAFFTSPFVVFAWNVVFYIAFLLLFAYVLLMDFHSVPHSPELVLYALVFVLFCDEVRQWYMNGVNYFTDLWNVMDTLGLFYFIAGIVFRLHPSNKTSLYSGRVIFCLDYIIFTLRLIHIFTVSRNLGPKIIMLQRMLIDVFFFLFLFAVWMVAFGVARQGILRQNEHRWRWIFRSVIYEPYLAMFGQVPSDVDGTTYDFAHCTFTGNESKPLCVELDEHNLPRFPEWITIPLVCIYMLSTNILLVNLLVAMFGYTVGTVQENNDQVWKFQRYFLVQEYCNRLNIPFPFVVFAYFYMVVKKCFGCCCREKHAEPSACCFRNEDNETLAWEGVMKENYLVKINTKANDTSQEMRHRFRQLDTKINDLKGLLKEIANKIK
The experiment is described as follows: In Vitro Canine TRPM8 Functional Assay (intracellular Ca2+ fluorescence, icilin activation, HEK293 cells). The experiment is classed as cell-based. The note with it: HEK293, 0.2 μM test compound; individually measured values; read-out: % Inh (%) @0.2 μM, in vitro TRP M8 Activity. As for the experimental part: The changes in fluorescent signal were monitored by a fluorescence plate reader, either a FLIPR™ (Molecular Devices) or FDSS (Hamamatsu). […] Cells were maintained in 5% CO2 at 37° C. At 24 hr prior to assay, cells were seeded in black wall, clear-base poly-D-lysine coated 384-well plates (BD Biosciences, NJ, USA) at a density of 5,000 cells per well in culture medium and grown overnight in 5% CO2 at 37° C. On assay day, growth media was removed, and cells were loaded with Calcium 3 Dye (Molecular Devices) for 35 min at 37° C., under 5% CO2 and then incubated for 25 min at room temperature and atmosphere. Subsequently, cells were tested for agonist-induced increases in intracellular Ca^2+ levels using FLIPR™ or FDSS. […] Maximal fluorescence intensity (FI) achieved upon addition of icilin was exported from the FLIPR™ or FDSS software and further analyzed using GraphPad Prism 3.02 (Graph Pad Software Inc., CA, U.S.A.). Basal FI was subtracted prior to normalizing data to percent of maximal response. Curves were generated using the average of quadruplicate wells for each data point using nonlinear regression of either sigmoidal dose response or sigmoidal dose response (variable slope). Finally, IC50 values were calculated with the best-fit curve determined by GraphPad Prism
With `Cn1nc2c(c1-c1nc3cc(-c4ccccc4C(F)(F)F)cc(C(F)(F)F)c3[nH]1)CCC21CCCCC1` [Compound 189], the inhibition at 0.2 µM is 99%. Turning to `Cc1oc(-c2nc3cc(-c4ccccc4OC(F)(F)F)cc(C(F)(F)F)c3[nH]2)nc1C(C)(C)C` [Compound 195, 2-(4-tert-Butyl-5-methyl-oxazol-2-yl)-5-(2-trifluoromethoxy-phenyl)-7-trifluoromethyl-1H-benzimidazole hydrochloride], the inhibition at 0.2 µM was 46%.

In the case of `Cc1oc(C(C)(C)C)nc1-c1nc2cc(-c3ccccc3)cc(C(F)(F)F)c2[nH]1` [Compound 157, 2-(2-tert-Butyl-5-methyl-oxazol-4-yl)-5-phenyl-7-trifluoromethyl-1H-benzimidazole hydrochloride], the inhibition at 0.2 µM came out at 41%. On to `Cc1oc(C(C)(C)C)nc1-c1nc2cc(-c3ccccc3C(F)(F)F)cc(Cl)c2[nH]1` [Compound 165, 2-(2-tert-Butyl-5-methyl-oxazol-4-yl)-7-chloro-5-(2-trifluoromethyl-phenyl)-1H-benzimidazole hydrochloride], for which the inhibition at 0.2 µM stood at 27%. On to `Cn1nc(C(C)(C)C)c(C(F)(F)F)c1-c1nc2cc(-c3ccccc3F)cc(C(F)(F)F)c2[nH]1` [Compound 185, 2-(5-tert-Butyl-2-methyl-4-trifluoromethyl-2H-pyrazol-3-yl)-5-(2-fluoro-phenyl)-7-trifluoromethyl-1H-benzimidazole sodium salt], for which the inhibition at 0.2 µM was determined as 99%. The same measure, in the same setting: with `Cn1nc(C(C)(C)C)c(C(F)(F)F)c1-c1nc2cc(-c3ccccc3C(F)(F)F)cc(C(F)(F)F)c2[nH]1` [Compound 187, 2-(5-tert-Butyl-2-methyl-4-trifluoromethyl-2H-pyrazol-3-yl)-7-trifluoromethyl-5-(2-trifluoromethyl-phenyl)-1H-benzimidazole sodium salt] the figure was 100%. Turning to `Cc1nc(C(C)(C)C)oc1-c1nc2cc(-c3ccccc3OC(F)(F)F)cc(C(F)(F)F)c2[nH]1` [Compound 176, 2-(2-tert-Butyl-4-methyl-oxazol-5-yl)-5-(2-trifluoromethoxy-phenyl)-7-trifluoromethyl-1H-benzimidazole hydrochloride], the inhibition at 0.2 µM turned out to be 60%.

The same experiment, now with this note: HEK293 cells expressing canine TRPM8, icilin activation; individually measured values (batches/salt forms); read-out: IC50 (nM), in vitro TRP M8 Activity.
By IC50 is commonly meant the concentration that gives 50% inhibition. For `Cn1nc(C2(C)CC2)cc1-c1nc2cc(-c3ccccc3OC(F)(F)F)ccc2[nH]1` [Compound 53, 2-[2-Methyl-5-(1-methylcyclopropyl)-2H-pyrazol-3-yl]-5-(2-trifluoromethoxyphenyl)-1H-benzimidazole sodium salt], the IC50 was determined as 41.7 nM. Same read-out and setting: with `Cn1nc2c(c1-c1nc3cc(-c4ccccc4C(F)(F)F)cc(C(F)(F)F)c3[nH]1)CCC21CCCCC1` [Compound 189] the figure was 10.6 nM. Consider `Cn1nc(C(C)(C)C)cc1-c1nc2cc(-c3ccccc3Cl)ccc2[nH]1` [Compound 59, 2-(5-tert-Butyl-2-methyl-2H-pyrazol-3-yl)-5-(2-chloro-phenyl)-1H-benzimidazole trifluoroacetic acid salt], for which the IC50 amounted to 8.3 nM.

As to `CC(C)(C)c1cc(-c2nc3cc(-c4c(C(F)(F)F)cccc4C(F)(F)F)ccc3[nH]2)on1` [Compound 104, 5-(2,6-Bis-trifluoromethyl-phenyl)-2-(3-tert-butyl-isoxazol-5-yl)-1H-benzimidazole hydrochloride], the IC50 is 3.9 nM. On the same count and under the same terms, as for `FC(F)(F)c1ccccc1-c1ccc2[nH]c(-c3cc(Cl)no3)nc2c1` [Compound 33, 2-(3-Chloroisoxazol-5-yl)-5-(2-trifluoromethylphenyl)-1H-benzimidazole sodium salt], the figure is 145 nM; as for `Cn1nc(C(F)(F)F)cc1-c1nc2cc(-c3ccccc3OC(F)(F)F)ccc2[nH]1` [Compound 41, 2-(5-Trifluoromethyl-2-methyl-2H-pyrazol-3-yl)-5-(2-trifluoromethoxyphenyl)-1H-benzimidazole sodium salt], 133 nM.

For the molecule `FC(F)(F)c1ccccc1-c1ccc2[nH]c(-c3cc(Br)no3)nc2c1` [Compound 42, 2-(3-Bromoisoxazol-5-yl)-5-(2-trifluoromethylphenyl)-1H-benzimidazole sodium salt], the IC50 amounted to 151 nM. Still for that read-out and setting: as for `CCCc1cc(-c2nc3ccc(-c4ccccc4OC(F)(F)F)cc3[nH]2)on1` [Compound 19, 2-(3-Propylisoxazol-5-yl)-6-(2-trifluoromethoxyphenyl)-1H-benzimidazole hydrochloride], the figure is 18 nM; as for `CC(C)(C)c1cc(-c2nc3cc(-c4ccccc4C#N)ccc3[nH]2)on1` [Compound 69, 2-[2-(3-tert-Butyl-isoxazol-5-yl)-1H-benzimidazol-5-yl]-benzonitrile trifluoroacetic acid salt], 20.5 nM. For the molecule `Cn1nc(C(C)(C)C)c(C(F)(F)F)c1-c1nc2cc(-c3ccccc3F)cc(C(F)(F)F)c2[nH]1` [Compound 185, 2-(5-tert-Butyl-2-methyl-4-trifluoromethyl-2H-pyrazol-3-yl)-5-(2-fluoro-phenyl)-7-trifluoromethyl-1H-benzimidazole sodium salt], the IC50 turned out to be 13.8 nM. As to `CC(C)Cc1cc(-c2nc3cc(-c4ccccc4C(F)(F)F)ccc3[nH]2)on1` [Compound 22, 2-(3-Isobutylisoxazol-5-yl)-5-(2-trifluoromethylphenyl)-1H-benzimidazole hydrochloride], the IC50 stood at 32 nM. On the same count and under the same terms, with `Cc1c(C(C)(C)C)noc1-c1nc2cc(-c3ccccc3C(F)(F)F)ccc2[nH]1` [Compound 108, 2-(3-tert-Butyl-4-methyl-isoxazol-5-yl)-5-(2-trifluoromethyl-phenyl)-1H-benzimidazole hydrochloride] the figure was 10.2 nM; with `Cn1nc(C(C)(C)C)c(C(F)(F)F)c1-c1nc2cc(-c3ccccc3C(F)(F)F)cc(C(F)(F)F)c2[nH]1` [Compound 187, 2-(5-tert-Butyl-2-methyl-4-trifluoromethyl-2H-pyrazol-3-yl)-7-trifluoromethyl-5-(2-trifluoromethyl-phenyl)-1H-benzimidazole sodium salt], 14.7 nM.

Turning to `Cc1c(C(C)(C)C)nn(C)c1-c1nc2cc(-c3c(F)cccc3OC(F)(F)F)ccc2[nH]1` [Compound 96, 2-(5-tert-Butyl-2,4-dimethyl-2H-pyrazol-3-yl)-5-(2-fluoro-6-trifluoromethoxy-phenyl)-1H-benzimidazole hydrochloride], the IC50 was 6.6 nM. On to `FC(F)(F)Oc1ccccc1-c1ccc2[nH]c(-c3cc(Cl)no3)nc2c1` [Compound 34, 2-(3-Chloroisoxazol-5-yl)-5-(2-trifluoromethoxyphenyl)-1H-benzimidazole sodium salt], for which the IC50 was determined as 72.9 nM. Same read-out and setting: as for `Cc1c(C(C)(C)C)noc1-c1nc2cc(-c3c(F)cccc3OC(F)(F)F)ccc2[nH]1` [Compound 110, 2-(3-tert-Butyl-4-methyl-isoxazol-5-yl)-5-(2-fluoro-6-trifluoromethoxy-phenyl)-1H-benzimidazole hydrochloride], the figure is 14.3 nM. On the same count and under the same terms, with `Cc1c(C(C)(C)C)nn(C)c1-c1nc2cc(-c3c(F)cccc3C(F)(F)F)cc(C(F)(F)F)c2[nH]1` [Compound 119, 2-(5-tert-Butyl-2,4-dimethyl-2H-pyrazol-3-yl)-5-(2-fluoro-6-trifluoromethyl-phenyl)-7-trifluoromethyl-1H-benzimidazole hydrochloride] the figure was 2 nM; with `Cn1nc(C2CCC2)cc1-c1nc2cc(-c3ccccc3OC(F)(F)F)ccc2[nH]1` [Compound 38, 2-(5-Cyclobutyl-2-methyl-2H-pyrazol-3-yl)-5-(2-trifluoromethoxy-phenyl)-1H-benzimidazole sodium salt], 55.8 nM; with `Cc1ccccc1-c1ccc2[nH]c(-c3cc(C(C)(C)C)no3)nc2c1` [Compound 65, 2-(3-tert-Butyl-isoxazol-5-yl)-5-o-tolyl-1H-benzimidazole trifluoroacetic acid salt], 15.5 nM. Same read-out and setting: with `CCC(CC)c1cc(-c2nc3ccc(-c4ccccc4C(F)(F)F)cc3[nH]2)on1` [Compound 26, 2-[3-(1-Ethylpropyl)-isoxazol-5-yl]-6-(2-trifluoromethylphenyl)-1H-benzimidazole hydrochloride] the figure was 39 nM.
